Source: ChEMBL document CHEMBL1148765, “Design, synthesis, and estrogenic activity of a novel estrogen receptor modulator--a hybrid structure of 17beta-estradiol and vitamin E in hippocampal neurons” (J Med Chem, 2007)

What was measured:
Homo sapiens = species on record: Homo sapiens; test: Selectivity for ERbeta over ERalpha
Estrogen receptor = biological target: T1, Estrogen receptor (Homo sapiens, UniProt P03372)
T1 sequence (P03372 whole entry): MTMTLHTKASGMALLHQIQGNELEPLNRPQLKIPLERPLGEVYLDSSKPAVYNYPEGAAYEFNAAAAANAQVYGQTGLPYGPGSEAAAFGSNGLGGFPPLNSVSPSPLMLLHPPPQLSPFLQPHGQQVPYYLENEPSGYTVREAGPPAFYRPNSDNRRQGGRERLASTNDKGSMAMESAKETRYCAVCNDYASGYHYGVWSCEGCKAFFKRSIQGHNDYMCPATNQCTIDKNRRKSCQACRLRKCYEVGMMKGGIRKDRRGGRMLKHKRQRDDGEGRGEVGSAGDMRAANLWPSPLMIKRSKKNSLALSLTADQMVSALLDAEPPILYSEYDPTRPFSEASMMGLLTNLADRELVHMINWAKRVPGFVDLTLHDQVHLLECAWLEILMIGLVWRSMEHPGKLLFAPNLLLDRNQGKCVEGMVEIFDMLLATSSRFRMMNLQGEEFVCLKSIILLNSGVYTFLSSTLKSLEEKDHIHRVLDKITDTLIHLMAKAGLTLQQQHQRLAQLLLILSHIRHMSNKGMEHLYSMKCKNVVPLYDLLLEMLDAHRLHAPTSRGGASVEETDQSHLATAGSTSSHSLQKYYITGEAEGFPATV
Description: Binding affinity to human ERalpha

[1] = Effect on glutamate-induced neurotoxicity in rat hippocampal neurons assessed increase in neuronal membrane integrity at 1 nM after 48 hrs relative to glutamate; type: functional, Hippocampus, Hippocampal neurone
[2] = Effect on glutamate-induced loss of metabolic viability in rat hippocampal neurons assessed as increase in neuronal viability at 1000 nM after 48 hrs relative to glutamate; type: functional, Hippocampus, Hippocampal neurone
[3] = Increase in ERK2 phosphorylation in rat hippocampal neurons at 100 nM after 30 mins by Western immunoblotting relative to control; type: functional, Hippocampus, Hippocampal neurone
[4] = Effect on glutamate-induced loss of metabolic viability in rat hippocampal neurons assessed as increase in neuronal viability at 100 nM after 48 hrs relative to glutamate; type: functional, Hippocampus, Hippocampal neurone
[5] = Effect on glutamate-induced neurotoxicity in rat hippocampal neurons assessed increase in neuronal membrane integrity at 1000 nM after 48 hrs relative to glutamate; type: functional, Hippocampus, Hippocampal neurone
[6] = Effect on glutamate-induced loss of metabolic viability in rat hippocampal neurons assessed as increase in neuronal viability at 1 nM after 48 hrs relative to glutamate; type: functional, Hippocampus, Hippocampal neurone
[7] = Increase in Bcl2 expression in rat hippocampal neurons at 10 nM after 48 hrs by Western immunoblotting relative to control; type: functional, Hippocampus, Hippocampal neurone
[8] = Effect on glutamate-induced loss of metabolic viability in rat hippocampal neurons assessed as increase in neuronal viability at 10 nM after 48 hrs relative to glutamate; type: functional, Hippocampus, Hippocampal neurone
[9] = Effect on glutamate-induced neurotoxicity in rat hippocampal neurons assessed increase in neuronal membrane integrity at 100 nM after 48 hrs relative to glutamate; type: functional, Hippocampus, Hippocampal neurone
Hippocampal neurone = test: Increase in Akt phosphorylation in rat hippocampal neurons at 100 nM after 30 mins by Western immunoblotting relative to control; type: tissue-based; details: Hippocampus
[10] = Increase in spinophilin expression in rat hippocampal neurons at 10 nM after 48 hrs by Western immunoblotting relative to control; type: functional, Hippocampus, Hippocampal neurone
Estrogen receptor beta = Estrogen receptor beta (Homo sapiens, UniProt Q92731)
Sequence of Estrogen receptor beta (Q92731 whole entry): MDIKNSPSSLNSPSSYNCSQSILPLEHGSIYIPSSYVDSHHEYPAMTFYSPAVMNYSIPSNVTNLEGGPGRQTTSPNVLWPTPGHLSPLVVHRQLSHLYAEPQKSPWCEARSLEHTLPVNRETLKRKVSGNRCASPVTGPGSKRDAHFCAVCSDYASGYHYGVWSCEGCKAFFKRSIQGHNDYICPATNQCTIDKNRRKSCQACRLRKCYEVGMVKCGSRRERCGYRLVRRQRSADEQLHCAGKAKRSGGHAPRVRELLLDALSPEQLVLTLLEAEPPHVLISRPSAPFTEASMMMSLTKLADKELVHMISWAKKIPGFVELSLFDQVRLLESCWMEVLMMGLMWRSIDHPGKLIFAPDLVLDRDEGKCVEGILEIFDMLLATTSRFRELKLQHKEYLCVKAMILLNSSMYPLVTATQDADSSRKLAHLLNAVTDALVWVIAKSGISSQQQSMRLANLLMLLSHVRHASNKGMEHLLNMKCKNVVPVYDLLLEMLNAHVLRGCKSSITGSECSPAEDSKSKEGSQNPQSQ
Description: Binding affinity to human ERbeta

[11] = Increase in Bcl-XL expression in rat hippocampal neurons at 10 nM after 48 hrs by Western immunoblotting relative to control; type: functional, Hippocampus, Hippocampal neurone
[12] = Effect on glutamate-induced neurotoxicity in rat hippocampal neurons assessed increase in neuronal membrane integrity at 10 nM after 48 hrs relative to glutamate; type: functional, Hippocampus, Hippocampal neurone

Selectivity ratio (Homo sapiens) | Structure (SMILES) | IC50 (Estrogen receptor) [nM] | Activity [1] [%] | Activity [2] [%] | Activity [3] [%] | Activity [4] [%] | Activity [5] [%] | Activity [6] [%] | Activity [7] [%] | Activity [8] [%] | Activity [9] [%] | Activity (Hippocampal neurone) [%] | Activity [10] [%] | IC50 (Estrogen receptor beta) [nM] | Activity [11] [%] | Activity [12] [%]
48 | Oc1ccc(/C=C/c2cc(O)cc(O)c2)cc1 | – | – | – | – | – | – | – | – | – | – | – | – | – | – | –
– | CC(C)CCC[C@@H](C)CCC[C@@H](C)CCC[C@@H]1Cc2cc(O)ccc2[C@H]2CC[C@]3(C)[C@@H](O)CC[C@H]3[C@H]12 | 193 | 38.6 | 25.6 | 46.3 | 28.4 | 59.1 | 2.7 | 23.4 | 9.3 | 67 | 139 | 61.7 | 267 | 58 | 44.1
